The values that follow come from article PMC4536990, “Efficacy of the antimicrobial peptide TP4 against Helicobacter pylori infection: in vitro membrane perturbation via micellization and in vivo suppression of host immune responses in a mouse model” (Oncotarget, 2015).

Where a SMILES comes first, the peptide text is derived from it.

Format in all cases: cell-based, Helicobacter pylori
Assay [1] concerns H. pylori 43629. Particulars: 43629, 24 h.
Assay [2] relates to H. pylori 43504. Particulars: 43504, 24 h. The procedure: (§1) H. pylori strains, American type cell cultures (ATCC) 43504, 51653, and 700392, and a clinical isolate CI-HC-028 (provided by Dr. Ming-Shiung Wu, Department of Internal Medicine, Gastrointestinal Hepatobilary Division, National Taiwan University Hospital, Taiwan) were used to determine the antimicrobial efficacy of TP4. Strains were cryopreserved at −80°C in brain heart infusion broth supplemented with 20% FBS. Bacteria were cultured under microaerobic conditions, as previously described. Briefly, bacteria were spread on brain heart infusion (BHI) agar plates supplemented with 10% (v/v) sheep blood, and plates were incubated at 37°C for 24 hr under a microaerobic atmosphere (Anaeropack-Anaero, Mitsubishi, Japan).
(§2) Frozen cultures were streaked onto BHI agar with 10% sheep blood, and incubated for 24 hr under microaerophilic conditions. H. pylori cells undergoing exponential growth were suspended in sterile phosphate-buffered saline (PBS), and adjusted to 0.05 OD using BHI broth; the resulting inoculum was dispensed onto a microtitre plate. Peptide TP4 was prepared at various concentrations (0.04 to 50 μg mL^−1) using PBS. Antibiotic resistant clinical isolate CI-HC-028 and three reference strains were used for susceptibility testing. All plates were incubated under microaerophilic conditions at 37°C overnight. The MIC was defined as the lowest concentration of the drug at which there was no visible growth. For quality control and comparative analyses, we examined the susceptibility of all four H. pylori strains to the antibiotics amoxicillin, clarithromycin, and metronidazole (Sigma Chemical Co., St. Louis, MO).

Assay [3] relates to H. pylori CI-HC-028. To be noted: CI-HC-028, 24 h. The procedure: as §1, §2
For assay [4], the system named is H. pylori 700392. To be noted: 700392, 24 h. The procedure:
as §1, §2

Assay [5] has as its system H. pylori. The assay can be described thus: Induction of drug resistance by sub-inhibitory passaging (in vitro / in vivo passage). To be noted: sub-inhibitory doses, 10 serial passages. The procedure:
(§3) Animals were sacrificed at each passage, and the MIC of TP4, amoxicillin, metronidazole, and clarithromycin were recorded for 10 serial passages. Passage points in the curves are means ± SEM. (MICs: standard MIC value; MICp: passage-induced MIC). (B) In vitro dose-OD fall kinetics were examined for TP4 alone and in combination with amoxicillin, metronidazole, or clarithromycin. […] The data shown are means ± SEM of two independent experiments
The drug resistance of bacteria to TP4 and clinical antibiotics was determined by in vitro culturing of H. pylori in sub-inhibitory concentrations of TP4 and antibiotics, followed by repeated in vivo passaging. H. pylori was administered to C3H/HeN mice and allowed to colonize the gut; subsequently pure colonies of H. pylori were isolated on EYE selective media. This step was repeated for 10 passages. During each passage, the MICs of TP4 and the conventional antibiotics were determined. All procedures, care, and handling of mice were approved by the laboratory animal ethics committee of National Taiwan Ocean University.

Assay [6] concerns H. pylori CI-HC-028. The assay can be described thus: Time-dependent killing of multidrug resistant clinical isolate. To be noted: CI-HC-028, at MIC. The procedure:
Control peptide and H. pylori alone were used as controls. The cultures were monitored for 24 h, and aliquots were taken at 1, 3, 6, 12, and 24 h for bacterial enumeration. The data are means ± SEM. […] Approximately, 1 × 10^5 cells were incubated for 1 h, and then incubated with the MIC of TP4, amoxicillin, metronidazole, or clarithromycin (AMOX, METZ, and CLRN, respectively). The cultures were monitored for 24 h, and aliquots taken at 1, 3, 6, 12, and 24 h to determine surviving c.f.u. The data are means ± SEM
Overnight cultures of H. pylori were scraped and adjusted to OD 0.05, and 1 ml/tube inocula were prepared with BHI broth. Solutions of TP4 or clinical antibiotics were prepared with concentrations corresponding to their respective MIC, and PBS was used as a control. The tubes were incubated without shaking at 37°C under microaerophilic conditions, and sample aliquots were taken at 0, 1, 3, 6, 12, and 24 hr. The samples were serially diluted, and appropriate dilutions were plated in triplicate onto blood agar plates for bacterial counts. The results were expressed as mean log (c.f.u. mL^−1) with standard error.

The test system of assay [7] is H. pylori. The assay can be described thus: Transmission electron microscopy of H. pylori morphology. To be noted: 1x MIC, 2 hr. The text has this:
Figure 4 Electron micrographs reveal that TP4 causes membrane disruption in H. pylori via micellization Approximately 6 × 10^7 H. pylori cells were exposed to PBS (A, D), 1x MIC amoxicillin (B, E), or 1x MIC TP4 peptide (C, F) for 2 hr. Next, thin sections were examined under a transmission electron microscope (TEM) at low (1,100X; A-C) or high (5,500X; D-F) magnification. […] (E) Amoxicillin-treated cells retained intact membranes, but the periplasmic space was swollen in some locations.
Transmission electron microscopy (TEM) was used to examine the mechanism of TP4 action on H. pylori, overall cell morphology, TP4 translocation into H. pylori, and binding of TP4 to internal constituents. H. pylori overnight cultures from BHI-blood agar plates were collected, and 0.1 OD inocula were incubated with TP4, Amoxicillin, and/or PBS (PBS only: negative control). Following drug exposure, H. pylori cells were collected and successively washed twice in PBS by centrifugation and resuspension. The cells were then fixed and processed for TEM using previously described methods. […] Each grid was examined under the same settings. Images were recorded with a 4MP SPOT Insight charge-coupled-device (CCD) camera.

Assay [8] deals with H. pylori outer membrane. The assay can be described thus: NPN uptake membrane perturbation assay. To be noted: 6 h incubation, 22μg mL−1 NPN. The procedure:
Figure 3 TP4 induces membrane permeation of H. pylori TP4 rapidly permeabilizes the H. pylori outer membrane in a dose-dependent manner. Membrane permeabilization was examined by measuring fluorescence due to uptake of 1-N-phenyl-naphthylamine (NPN). Approximately 5 × 10^6 H. pylori (Hp) cells were cultured in the presence of TP4 or amoxicillin for 6 h. Bacterial cells alone, or cells incubated with NPN and control peptide, were used as negative controls. NPN fluorescence intensity was recorded as a correlate of membrane permeation. (B) Zeta-potential (ζ) of H. pylori in the presence/absence of TP4. Striped bars: H. pylori grown in blood agar plates; white bar: liquid culture. The data shown are means ± SEM of two independent experiments
The NPN membrane permeation assay was performed as described previously. Briefly, a starter culture of H. pylori was grown overnight to 0.05 OD. The adjusted culture was aliquoted into different tubes with or without TP4/amoxicillin, and incubated at 37°C for 360 minutes under microaerophilic conditions. […] NPN fluorescence intensity was recorded using a Synergy HT (BioTek, U.S.A) fluorescence ELISA reader, and correlated to membrane potential and permeation. Experiments were performed in triplicate, and the results are expressed as means with standard error.

Assay [9] has as its system metronidazole- and clarithromycin-resistant H. pylori strains. The assay can be described thus: Synergy of TP4 with antibiotics, in vitro dose-OD fall kinetics. To be noted: TP4 plus antibiotic. The procedure: as §3
Combination therapy often enhances antibiotic efficacy and mitigates the frequency at which drug resistance emerges. To determine the suitability of TP4 for combination therapy, we examined in vitro dose-OD fall kinetics of TP4 in combination with AMOX, CLRN, or METZ antibiotics; these three antibiotics are traditionally used as the first line of defense against H. pylori.

One may read the MIC as the lowest concentration that inhibits growth of the organism.

Turning to `CC(C)C[C@H](NC(=O)[C@@H](NC(=O)[C@H](CO)NC(=O)[C@H](CC(=O)O)NC(=O)[C@H](Cc1c[nH]c2ccccc12)NC(=O)[C@H](CC(=O)O)NC(=O)[C@@H](N)Cc1ccccc1)C(C)C)C(=O)N[C@@H](CCCCN)C(=O)NCC(=O)N[C@H](C(=O)N[C@@H](CCC(=O)O)C(=O)NCC(=O)N[C@@H](Cc1ccccc1)C(=O)N[C@H](C(=O)N[C@@H](CCCNC(=N)N)C(=O)NCC(=O)N[C@@H](Cc1ccc(O)cc1)C(=O)N[C@@H](Cc1ccccc1)C(N)=O)C(C)C)C(C)C` [TP1] (H-FDWDSVLKGVEGFVRGYF-NH2), the MIC in [1], in [2], in assay [3] and in assay [4] was > 12 µg/mL in each case.

On to `CC[C@H](C)[C@H](NC(=O)[C@H](CC(C)C)NC(=O)[C@H](CO)NC(=O)[C@H](Cc1c[nH]cn1)NC(=O)[C@@H](NC(=O)[C@H](Cc1c[nH]cn1)NC(=O)[C@H](CCCCN)NC(=O)CNC(=O)[C@@H](NC(=O)[C@H](CO)NC(=O)[C@H](Cc1ccccc1)NC(=O)[C@H](CC(C)C)NC(=O)CNC(=O)CNC(=O)[C@@H](NC(=O)[C@@H](NC(=O)[C@H](Cc1c[nH]cn1)NC(=O)[C@H](Cc1c[nH]cn1)NC(=O)[C@@H](NC(=O)[C@@H](N)Cc1ccccc1)[C@@H](C)CC)[C@@H](C)CC)[C@@H](C)CC)C(C)C)[C@@H](C)CC)C(=O)N[C@@H](Cc1c[nH]cn1)C(=O)NCC(=O)N[C@@H](Cc1c[nH]cn1)C(N)=O` [TP3] (H-FIHHIIGGLFSVGKHIHSLIHGH-NH2), for which the MIC in assay [1], in assay [2], in assay [3] and in assay [4] was 8 to 12 µg/mL in each case.

As for `CC[C@H](C)[C@H](NC(=O)[C@H](CC(C)C)NC(=O)[C@H](CCC(=O)O)NC(=O)[C@H](CCC(N)=O)NC(=O)[C@H](CC(C)C)NC(=O)[C@@H](NC(=O)[C@H](CCCCN)NC(=O)[C@H](CCC(N)=O)NC(=O)[C@@H](NC(=O)[C@@H](NC(=O)[C@H](CCC(=O)O)NC(=O)CNC(=O)[C@H](CO)NC(=O)[C@@H](NC(=O)[C@H](CCC(N)=O)NC(=O)[C@H](CCCCN)NC(=O)CNC(=O)[C@H](CCC(N)=O)NC(=O)[C@H](CC(C)C)NC(=O)[C@@H](N)CCC(N)=O)C(C)C)C(C)C)C(C)C)C(C)C)C(=O)N[C@@H](CCC(N)=O)C(=O)N[C@@H](CO)C(=O)N[C@H](C(=O)N[C@@H](C)C(=O)N[C@@H](CCCCN)C(=O)N1CCC[C@H]1C(N)=O)C(C)C` [TP5] (H-QLQGKQVSGEVVQKVLQELIQSVAKP-NH2), the minimum inhibitory concentration (MIC) in assay [1], in [2], in assay [3] and in assay [4] was >12 µg/mL throughout.

In the case of `CC1(C)S[C@@H]2[C@H](NC(=O)[C@H](N)c3ccc(O)cc3)C(=O)N2[C@H]1C(=O)O` [amoxicillin], the “drug resistance index MICp/MICs” value in assay [5] was “increased slightly after passage 6, and remained constant thereafter”. In addition, in assay [6], the “killing within 24 hr” value worked out at 90%. In [7], the “membrane morphology by TEM” value is given as “loose outer membranes”. The “NPN fluorescence intensity (membrane permeabilization)” value in assay [8] is “slight increase in fluorescence intensity at higher doses”. Further, the “reduction of the MIC of the antibiotic in combination with TP4” value in assay [9] was “one-fourth”.
